{
  "source": "patent US20090062397A1",
  "about": "“COMPOUNDS AND METHODS FOR ENHANCING SOLUBILITY OF FLORFENICOL AND STRUCTURALLY-RELATED ANTIBIOTICS USING CYCLODEXTRINS” (Schering-Plough Animal Health Corporation, priority 2007, published 2009)",
  "format_in_all_cases": "physicochemical",
  "key": {"[1]": {"assay": "Experimental water solubility of FFC (HPLC solubility study)", "details": "thermodynamic from solid", "method": "(§1) Phase solubility analysis is one of the methods used to determine a drug:CD binding constant and its consequences on the drug solubility have been extensively described in the literature by Higuchi and Connors. In such experiments, the solubility of a substance (S) is monitored with increases in the concentration of a ligand (L) (cyclodextrin in this case). The experiments are conducted in a series of tubes or vials containing the same volume of ligand solutions with increasing concentrations, except that one tube contains the solvent only. To each tube is added a known amount of the substance or drug, and the samples are equilibrated at constant temperature. The solution phase is then analyzed for the total substance concentration. If a soluble complex forms, the substance concentration should vary with increasing ligand concentration. The solubility behavior can be determined using a phase diagram by plotting the total substance concentration versus the total ligand concentration.\n(§2) Florfenicol solubility in mixed solvents, such as water/PEG-300, and florfenicol complexes with beta cyclodextrin were evaluated by solubility studies using High Performance Liquid Chromatography (HPLC). The HPLC system consisted of a Waters Alliance Separation Module equipped with a Waters 2996 Photodiode Array Detector interfaced with Millennium Chromatography manager data software. The HPLC mobile phase consisted of acetonitrile and a 0.1% phosphoric acid aqueous solution (30:70 v/v). A Phenomenx®, Luna C8 5 micron column was used. The flow rate was 1.0 mL/min and the detection wavelength was 260 nm. Binding constants were calculated using the Higuchi Connors method from solubility study plots. The solubility of florfenicol in aqueous CD/PEG-300 systems was also investigated with the same technique.\n(§3) In a first set of experiments, phase solubility studies were conducted for FFC in natural and modified cyclodextrins. The results of these studies are reported in Tables I, II, III, IV and V below, and the phase solubility diagrams are reported in FIGS. 5, 6, 7 and 8."}, "[2]": {"assay": "Phase solubility study of FFC in HP-Beta-CD (Higuchi Connors)", "method": "as §1, §2, §3"}, "[3]": {"assay": "Phase solubility study of FFC in Gamma-CD (Higuchi Connors)", "method": "as §1, §2, §3"}, "[4]": {"assay": "Phase solubility study of FFC in Captisol (Higuchi Connors)", "method": "as §1, §2, §3"}, "[5]": {"assay": "Solubility of FFC in aqueous Beta-CD/PEG-300 systems", "details": "for solubility: aqueous beta-cyclodextrin/PEG-300 system, aqueous with cosolvent or surfactant or cyclodextrin, thermodynamic from solid", "method": "as §2\nIn a second set of experiments, the effects of different percentages of PEG-300 when used as a co-solvent were investigated in a FFC-cyclodextrin complex system.\nThe results obtained for the FEC-CD complex in the presence of different percentages of PEG-300 and different molar concentrations of cyclodextrin are reported in Tables VI and VII below."}, "[6]": {"assay": "Phase solubility study of FFC in Beta-CD (Higuchi Connors)", "method": "as §1, §2, §3"}},
  "data": [
    {"smiles": "CS(=O)(=O)c1ccc([C@@H](O)[C@@H](CF)NC(=O)C(Cl)Cl)cc1", "note": "(relative stereo) [FFC, [R-(R*,S*)]2,2-Dichloro-N-[1-(fluoromethyl)-2-hydroxy-2-[4-(methylsulfonyl)phenyl]-ethyl]acetamide]", "values": [
      {"measurement": "solubility", "setting": "[1]; Standard 1", "value": 1910, "unit": "µg/mL"},
      {"measurement": "solubility", "setting": "[1]; Standard 2", "value": 1900, "unit": "µg/mL"},
      {"measurement": "solubility", "setting": "[1]; Standard 3", "value": 1950, "unit": "µg/mL"},
      {"measurement": "Average FFC", "setting": "[2]; HP-Beta-CD 0.006 M", "value": 3.72, "unit": "mg/mL"},
      {"measurement": "Average FFC", "setting": "[2]; HP-Beta-CD 0.012 M", "value": 4.88, "unit": "mg/mL"},
      {"measurement": "Average FFC", "setting": "[2]; HP-Beta-CD 0.02 M", "value": 7.00, "unit": "mg/mL"},
      {"measurement": "Average FFC", "setting": "[2]; HP-Beta-CD 0.05 M", "value": 9.76, "unit": "mg/mL"},
      {"measurement": "Average FFC", "setting": "[2]; HP-Beta-CD 0.09 M", "value": 17.43, "unit": "mg/mL"},
      {"measurement": "calculated binding constant for FFC:HP-CD complex", "setting": "[2]; HP-Beta-CD, Higuchi Connors method", "value": 816.652, "unit": "M⁻¹"},
      {"measurement": "Average FFC", "setting": "[3]; Gamma-CD 0.007 M", "value": 2.51, "unit": "mg/mL"},
      {"measurement": "Average FFC", "setting": "[3]; Gamma-CD 0.014 M", "value": 3.70, "unit": "mg/mL"},
      {"measurement": "Average FFC", "setting": "[3]; Gamma-CD 0.03 M", "value": 5.24, "unit": "mg/mL"},
      {"measurement": "Average FFC", "setting": "[3]; Gamma-CD 0.06 M", "value": 8.20, "unit": "mg/mL"},
      {"measurement": "Average FFC", "setting": "[3]; Gamma-CD 0.11 M", "value": 10.77, "unit": "mg/mL"},
      {"measurement": "calculated binding constant for FFC:Gamma-CD Complex", "setting": "[3]; Gamma-CD, Higuchi Connors method", "value": 612.43, "unit": "M⁻¹"},
      {"measurement": "Average FFC", "setting": "[4]; Captisol 0.006 M", "value": 4.92, "unit": "mg/mL"},
      {"measurement": "FFC", "setting": "[4]; Captisol 0.006 M", "value": 9.28, "unit": "µM"},
      {"measurement": "Average FFC", "setting": "[4]; Captisol 0.013 M", "value": 5.11, "unit": "mg/mL"},
      {"measurement": "FFC", "setting": "[4]; Captisol 0.013 M", "value": 13.2, "unit": "µM"},
      {"measurement": "Average FFC", "setting": "[4]; Captisol 0.03 M", "value": 7.98, "unit": "mg/mL"},
      {"measurement": "Average FFC", "setting": "[4]; Captisol 0.05 M", "value": 13.17, "unit": "mg/mL"},
      {"measurement": "FFC", "setting": "[4]; Captisol 0.05 M", "value": 34.1, "unit": "µM"},
      {"measurement": "Average FFC", "setting": "[4]; Captisol 0.10 M", "value": 19.18, "unit": "mg/mL"},
      {"measurement": "FFC", "setting": "[4]; Captisol 0.10 M", "value": 49.7, "unit": "µM"},
      {"measurement": "calculated binding constant for FFC:Captisol complex", "setting": "[4]; Captisol, Higuchi Connors method", "value": 1020.92, "unit": "M⁻¹"},
      {"measurement": "solubility of FFC (change)", "setting": "[5]; PEG-300 used as co-solvent for a FFC:cyclodextrin complex", "value": "greatly increased"},
      {"measurement": "solubility", "setting": "[5]; 10 mM beta/3% PEG-300", "value": 7510, "unit": "µg/mL"},
      {"measurement": "solubility", "setting": "[5]; 10 mM beta/10% PEG-300", "value": 6310, "unit": "µg/mL"},
      {"measurement": "solubility", "setting": "[5]; 10 mM beta/50% PEG-300", "value": 12300, "unit": "µg/mL"},
      {"measurement": "solubility", "setting": "[5]; 50 mM beta/20% PEG-300", "value": 10600, "unit": "µg/mL"},
      {"measurement": "solubility", "setting": "[5]; 50 mM beta/30% PEG-300", "value": 14400, "unit": "µg/mL"},
      {"measurement": "solubility", "setting": "[5]; 50 mM beta/50% PEG-300", "value": 15500, "unit": "µg/mL"},
      {"measurement": "Average FFC", "setting": "[6]; Beta-CD 0.006 M", "value": 4.03, "unit": "mg/mL"},
      {"measurement": "FFC", "setting": "[6]; Beta-CD 0.006 M", "value": 10.45, "unit": "µM"},
      {"measurement": "Average FFC", "setting": "[6]; Beta-CD 0.01 M", "value": 5.91, "unit": "mg/mL"},
      {"measurement": "FFC", "setting": "[6]; Beta-CD 0.01 M", "value": 15.3, "unit": "µM"},
      {"measurement": "Average FFC", "setting": "[6]; Beta-CD 0.02 M", "value": 9.79, "unit": "mg/mL"},
      {"measurement": "FFC", "setting": "[6]; Beta-CD 0.02 M", "value": 25.4, "unit": "µM"},
      {"measurement": "Average FFC", "setting": "[6]; Beta-CD 0.05 M", "value": 15.59, "unit": "mg/mL"},
      {"measurement": "FFC", "setting": "[6]; Beta-CD 0.05 M", "value": 40.4, "unit": "µM"},
      {"measurement": "calculated binding constant for FFC:CD complex", "setting": "[6]; Beta-CD, Higuchi Connors method", "value": 1429.57, "unit": "M⁻¹"}
    ]}
  ]
}
